Reference: patent US11033604B2, “Reagents and methods for treating bacterial infection” (priority 2018, dated 2021)
Non-standard residues stand in square brackets, D forms with d. No end group written: not given here.

Tests used:
S. aureus MN8 biofilms = experiment: ThT fluorescence assay of amyloid formation in S. aureus MN8 biofilm cultures; format: cell-based, Staphylococcus aureus; details: MN8 and SH1000 WT strains, particularly MN8; 24 h, 37° C.
Protocol: We developed a novel protocol to identify amyloid fibril formation during biofilm development in two S. aureus strains—SH1000 WT, a rsbU^+ laboratory strain^27, and MN8, a clinical strain isolated from the human urogenital tract (Table 1). After 24 hours of batch growth in microtiter plates, biofilms were washed and incubated with Thioflavin T (ThT), and the resulting fluorescence signals served as a proxy for the extent of PSM fibril formation in the EM (FIG. 1A). Next, we utilized this assay to test α-sheet amyloid inhibitor designs and control peptides (sequences provided in Table 2) in batch biofilm cultures. The first inhibitor used is AP90 (Alternating Peptide #90, referred to as α1 previously^25,26). […] The AP401 and AP407 designs display similar spectral features by CD, except that AP401 has a positive signal in the random coil region (FIG. 7). AP401 has the same sequence as AP90 but with reversed chirality in the strands and turn, thus the D-amino acids give rise to an approximate mirror image CD spectrum relative to AP90. AP407 is a variant of AP90 with a disulfide bond. An unstructured random coil peptide (RC) and a β-hairpin (β) are used as structural controls.
Designed and control peptides were added to the growth medium prior to inoculation, and biofilms were allowed to grow for 24 hours at 37° C. Planktonic cells were removed and the remaining biofilms were assayed for amyloid content using ThT. […] The disulfide-linked peptide design, AP407, reduced the amyloid fibril formation by 46% and 56% in the MN8 and SH1000 WT strains, respectively. In contrast, the random coil and β-sheet control peptides were ineffective.
Overnight cultures of S. aureus (see Table 1 for a list of strains used in this study) were spun down and re-suspended in fresh Luria-Bertani (LB) media to an optical density of 0.1 (600 nm). These cultures were then mixed with reconstituted peptide (or water, in the case of controls) and aliquoted in quadruplicate into wells of a clear 48-well plate (Corning, TC-treated polystyrene). The final concentration of peptide in each well was 80 μM, unless otherwise noted. Plates were covered and biofilms were grown at 37° C. for 24 hours with gentle rocking. At this time, medium and planktonic cells were removed from wells using a vacuum and the remaining adherent biofilms were rinsed once with PBS (BupH™, Thermo Scientific). Thioflavin T (ThT), an established fluorescent label for amyloid fibrils^40, was then added to each well at a concentration of 22 μM and biofilms were incubated statically for 4 hours at room temperature. The solution was then removed from the wells and PBS was added with vigorous pipetting to detach biofilms from the plate surface. Plates were shaken at high speed for 1 minute on a plate shaker to detach any remaining biofilm material and homogenize the samples. The detached biofilm suspensions were transferred to a 96-well black-walled plate (Corning, TC-treated polystyrene) and ThT fluorescence was read at 438/495 nm on a Perkin-Elmer Enspire™ plate reader. Fluorescence measurements were corrected by subtracting the background intensity of identical samples without ThT. For calculation of live:dead cell ratios, biofilm suspensions were prepared as described above and cells were stained with a 1:1 mixture of Syto9 and propidium iodide (LIVE/DEAD BacLight™ Bacterial Viability Kit, Thermo Scientific). After 15 minutes of incubation at room temperature, fluorescence ratios of the two dyes were determined using a Perkin-Elmer Enspire™ plate reader.

synthetic PSMα1 = experiment: PSMα1 fibrillization assay with added inhibitors (ThT); format: biochemical, Staphylococcus aureus
Protocol: FIG. 5. Aggregation of synthetic PSMα1 is inhibited by designed α-sheet peptides. (A) Synthetic PSMα1 peptide (30 μM, <1% DMSO, pH 5.5) was allowed to aggregate alone and in the presence of AP90 (1:4 molar ratio), RC (1:4 molar ratio), or AP407 (1:3 molar ratio). Two different solvent conditions were used (water+<1% DMSO; LB medium+<1% DMSO) and aggregation was monitored by ThT fluorescence. Inhibition values for each peptide are reported as a percentage of the peptide-free control samples (0% inhibition). (B) ThT fluorescence curves monitored the aggregation kinetics of PSMα1 under two different solvent conditions (water+<1% DMSO, black circles; LB medium+<1% DMSO, white circles). Fluorescence values in (B) are averages of 3-6 samples, with error bars to represent the standard deviation of the mean.
Designed α-sheet peptides inhibit amyloid formation through selective binding After establishing the structural transitions required to form amyloid in PSMα1, we examined the effect of the designed α-sheet peptides on the aggregation of PSMα1 in vitro. The designed peptide inhibitors were co-incubated with freshly prepared samples of synthetic PSMα1 (30 μM) and aggregation was monitored by ThT, as described above. To ensure sample homogeneity and removal of any amyloid “seeds” prior to aggregation, the synthetic PSMα1 peptide was treated with DMSO and then diluted into filtered water. […]

SA = experiment: Crystal violet biofilm assay; format: cell-based, Staphylococcus aureus
From the text: (§1) Furthermore, these same inhibitors are active against EC, SE, and SM.

Escherichia coli (EC) = experiment: Crystal violet biofilm assay; format: cell-based
From the text: as §1

[1] = system: Pseudomonas aeruginosa (PA); experiment: Crystal violet biofilm assay; format: cell-based
From the text: as §1

[2] = system: Staphylococcus epidermidis (SE); experiment: Crystal violet biofilm assay; format: cell-based
From the text: as §1

[3] = system: Streptococcus mutans (SM); experiment: Crystal violet biofilm assay; format: cell-based
From the text: as §1

[4] = system: P. aeruginosa PAO1 pFap biofilms; experiment: In situ ThT assay of Fap amyloid in P. aeruginosa biofilms; format: cell-based; details: LB medium, 37° C., 48 h
From the text: FIG. 15. Action of synthetic α-sheet peptides in the P. aeruginosa system. […] Error bars indicate standard deviation of the mean of at least three replicates. Significance values are p<0.05: *, p<0.01: **, p<0.001: ***.
The strain used in these experiments is a fap-overexpressing mutant of P. aeruginosa PAO1 WT called PAO1 pFap. The overexpression is generated by cloning the entire fap operon into a host expression vector, which is then transformed into PAO1 WT. […] For in situ assays, overnight cultures from a single colony of freshly transformed PAO1 pFap were used to inoculate 96 well plates in the presence of synthetic α-sheet peptides in LB medium. As a control, biofilms of the deletion strain PAO1 Δfap were grown under the same conditions. Plates were covered and incubated at 37° C. for 48 h. After incubation, planktonic cells and media were gently removed from the biofilms by pipetting. The biofilms were rinsed once with PBS prior to staining with 20 μM ThT. Stained biofilms were resuspended by pipetting and sonication, and the fluorescence of ThT was measured at 448/485 nm in a plate reader.

Q: “KLKpLLTSENTL (KLK[dP]LLTSENTL) [RC, unstructured random coil peptide used as structural control]” was tested. Which “Effect on amyloid fibril formation in S. aureus biofilms (ThT fluorescence, FIG. 1B)” value (“Effect on amyloid fibril formation” below) (S. aureus MN8 biofilms) did it give?
A: ineffective

Q: And the “Inhibition of PSMα1 fibril formation” value (synthetic PSMα1; 30 μM PSMα1, LB medium + <1% DMSO, 1:4 molar ratio)?
A: did not significantly influence amyloid formation

Q: What about the “Inhibition of PSMα1 amyloid formation” value (synthetic PSMα1; 30 μM PSMα1, water + <1% DMSO, 1:4 molar ratio (excess peptide)) of the same substance?
A: little effect

Q: Which “Biofilm inhibition (crystal violet, FIG. 10)” value (SA) does the source give for “RGNwNeSkMNEYSGWmLmLtMGR (RGN[dW]N[dE]S[dK]MNEYSGW[dM]L[dM]L[dT]MGR) [AP5]” here?
A: inhibition

Q: And the “Activity against biofilm-forming bacteria (crystal violet)” value (from here on “Activity”) (Escherichia coli (EC))?
A: active

Q: And the “Biofilm inhibition (crystal violet, FIG. 10)” value [1]?
A: inhibition

Q: And the “Activity” value [2]?
A: active

Q: What about the “Activity” value [3] of the same substance?
A: active

Q: What about the “Amyloid formation in biofilms (ThT)” value [4] of the same substance?
A: significantly inhibit amyloid formation

Q: Which “Effect on amyloid fibril formation” value (S. aureus MN8 biofilms) does the source give for “SWTWEpNKWTWK (H-SWTWE[dP]NKWTWK-NH2; SMILES C[C@@H](O)[C@H](NC(=O)[C@H](Cc1c[nH]c2ccccc12)NC(=O)[C@H](CCCCN)NC(=O)[C@H](CC(N)=O)NC(=O)[C@H]1CCCN1C(=O)[C@H](CCC(=O)O)NC(=O)[C@H](Cc1c[nH]c2ccccc12)NC(=O)[C@@H](NC(=O)[C@H](Cc1c[nH]c2ccccc12)NC(=O)[C@@H](N)CO)[C@@H](C)O)C(=O)N[C@@H](Cc1c[nH]c2ccccc12)C(=O)N[C@@H](CCCCN)C(N)=O) [β, β-hairpin structural control peptide, reference compound]” here?
A: ineffective

Q: “rGeMnLsWmneysGwTmNlKmGr (Ac-[dR]G[dE]M[dN]L[dS]W[dM][dN][dE][dY][dS]G[dW]T[dM]N[dL]K[dM]G[dR]-NH2; SMILES CSCC[C@H](NC(=O)[C@@H](CCC(=O)O)NC(=O)CNC(=O)[C@@H](CCCNC(=N)N)NC(C)=O)C(=O)N[C@H](CC(N)=O)C(=O)N[C@@H](CC(C)C)C(=O)N[C@H](CO)C(=O)N[C@@H](Cc1c[nH]c2ccccc12)C(=O)N[C@H](CCSC)C(=O)N[C@H](CC(N)=O)C(=O)N[C@H](CCC(=O)O)C(=O)N[C@H](Cc1ccc(O)cc1)C(=O)N[C@H](CO)C(=O)NCC(=O)N[C@H](Cc1c[nH]c2ccccc12)C(=O)N[C@H](C(=O)N[C@H](CCSC)C(=O)N[C@@H](CC(N)=O)C(=O)N[C@H](CC(C)C)C(=O)N[C@@H](CCCCN)C(=O)N[C@H](CCSC)C(=O)NCC(=O)N[C@H](CCCNC(=N)N)C(N)=O)[C@@H](C)O) [AP401]” was tested. Which “Effect on amyloid fibril formation” value (S. aureus MN8 biofilms) did it give?
A: significant reduction in amyloid fibril formation
